Assay results published in ChEMBL document CHEMBL5729293, “Inhibitors of KEAP1-Nrf2 protein-protein interaction” (2022).

test: Fluorescence Based Assay: The details of the KEAP1 KELCH ThermoFluor® Assay Construct are as follows: Kelch domain of human KEAP 1 (321-624 aa) was used in the assay. The protein was expressed in E. coli with 6His tag that was cleaved prior to receipt for use.ThermoFluor® experiments were carried out using instruments owned by Janssen Research and Discovery, L.L.C. through its acquisition of 3-Dimensional Pharmaceuticals, Inc. 1,8-ANS (Invitrogen) was used as a fluorescent dye. Protein (KEAP Kelch) and compound solutions were dispensed into black 384-well polypropylene PCR microplates (Abgene) and overlayed with silicone oil (1 μL, Fluka, type DC 200) to prevent evaporation.Reference wells contained KEAP Kelch without compounds, and the assay conditions were as follows: 1.1 μM (0.037mg/mL) KEAP Kelch, 80 μM 1,8-ANS, 25 mM PIPES, pH 7.0, 100 mM NaCl, 0.002% Tween-20.

| SMILES | Kd |
| --- | --- |
| Cc1ncc([C@@H](c2ccn3c(C(F)(F)F)nnc3c2C)C(C)(C)C(=O)O)cc1CN1C[C@@H]2CCCCN2c2ncc(C#N)cc2S1(=O)=O | < 1 nM |
| Cc1ccc([C@@H](c2ccn3c(C4CC4)nnc3c2C)C(C)(C)C(=O)O)cc1CN1CC2(CC2)Oc2nc(OCCN3CCCC3)c(C)cc2S1(=O)=O | < 1 nM |
| Cc1ccc([C@@H](c2ccc3c(nnn3C3CC3)c2C)C(C)(C)C(=O)O)cc1CN1CC2(CC2)Oc2nc(N[C@@H](C)CN3CCCCC3)c(C)cc2S1(=O)=O | < 1 nM |
| Cc1cnc2c(c1)S(=O)(=O)N(Cc1cc([C@@H](c3ccc4c(nnn4C4CC4)c3C)C(C)(C)C(=O)O)ccc1C)CC1(CCNCC1)O2 | < 1 nM |
| Cc1ccc([C@@H](c2ccn3c(C(F)(F)F)nnc3c2C)C(C)(C)C(=O)O)cc1CN1CC2(CC2)Oc2nc(OCCN3CCC(F)CC3)c(C)cc2S1(=O)=O | < 1 nM |
| Cc1ncc([C@H](c2ccn3c(C(F)(F)F)nnc3c2C)C(C)(C)C(=O)O)cc1CN1C[C@@H]2CCCCN2c2ncc(C#N)cc2S1(=O)=O | < 1 nM |
| Cc1ccc([C@@H](CC(=O)O)c2ccc3c(nnn3CC3CC3)c2C(F)F)cc1CN1C[C@H]2CCCCN2c2ncccc2S1(=O)=O (single isomer, unassigned) | < 1 nM |
